According to patent US20200345010A1, “FUNGICIDAL OXADIAZOLES” (FMC Corporation, priority 2019, published 2020):
Marks after values point to notes of the source that are not given here.

Key:
[1] = test system: Phakopsora pachyrhizi; test: Test A: Asian soybean rust control on soybean seedlings; assay type: in vivo; settings: soybean seedlings sprayed the day before inoculation, 100 = 100% disease control, 0 = none
Source text: (§1) General protocol for preparing test suspensions for Tests A-C: the test compounds were first dissolved in acetone in an amount equal to 3% of the final volume and then suspended at the desired concentration (in ppm) in acetone and purified water (50/50 mix by volume) containing 250 ppm of the surfactant PEG400 (polyhydric alcohol esters). The resulting test suspensions were then used in Tests A-C.
(§2) The test solution was sprayed to the point of run-off on soybean seedlings. The following day the seedlings were inoculated with a spore suspension of Phakopsora pachyrhizi (the causal agent of Asian soybean rust) and incubated in a saturated atmosphere at 22° C. for 24 h, and then moved to a growth chamber at 22° C. for 8 days, after which time visual disease ratings were made.
(§3) A rating of 100 indicates 100% disease control and a rating of 0 indicates no disease control (relative to the controls). A dash (-) indicates the compound was not tested.

[2] = test system: Puccinia recondita f. sp. tritici; test: Test C: wheat leaf rust control on wheat seedlings; assay type: in vivo; settings: wheat seedlings sprayed the day before inoculation, 100 = 100% disease control, 0 = none
Source text: as §1
as §2, with “wheat” for “soybean”, “Puccinia recondita f. sp. tritici” for “Phakopsora pachyrhizi”, “wheat leaf” for “Asian soybean”, “20°” for “22°”, “7” for “8”, “time” for “time visual”
as §3

[3] = test system: Zymoseptoria tritici; test: Test B: wheat leaf blotch control on wheat seedlings; assay type: in vivo; settings: 250 ppm test suspension (asterisk); wheat seedlings sprayed the day before inoculation; 100 = 100% disease control, 0 = none
Source text: as §1
The test solution was sprayed to the point of run-off on wheat seedlings. The following day the seedlings were inoculated with a spore suspension of Zymoseptoria tritici (the causal agent of wheat leaf blotch) and incubated in a saturated atmosphere at 24° C. for 48 h, and then moved to a growth chamber at 20° C. for 17 days, after which time disease ratings were made.
as §3

[4] = 250 ppm test suspension (asterisk)

Row | SMILES | Test A disease control rating ([1]; 10 ppm test suspension) | Test C disease control rating ([2]; 10 ppm test suspension) | Test B disease control rating [3] | further results
1 | CS(=O)(=NCc1ccc(-c2noc(C(F)(F)F)n2)cc1)c1ccccc1 (single isomer, unassigned) [Compound 8] | 100% | 68% |  | 
2 | CS(=O)(=NCc1ccc(-c2noc(C(F)(F)F)n2)cc1)c1ccccc1 (single isomer, unassigned) [Compound 23] |  |  |  | Test A disease control rating ([1]; 50 ppm test suspension): 100%; Test C disease control rating ([2]; 50 ppm test suspension): 85%
3 | CS(C)(=O)=Nc1ccc(-c2noc(C(F)(F)F)n2)cc1 [Compound 1] | 73% | 0% |  | 
4 | CS(=O)(Cc1ccccc1)=NCc1ccc(-c2noc(C(F)(F)F)n2)cc1 (centres unmarked) [Compound 2, N-[methyloxido(phenylmethyl)-λ^4-sulfanylidene]-4-[5-(trifluoromethyl)-1,2,4-oxadiazol-3-yl]benzenemethanamine] |  |  | 93* % | Test A disease control rating ([1]; 50 ppm test suspension): 100%; Test C disease control rating ([2]; 50 ppm test suspension): 100%
5 | CS(=O)(=NCc1ccc(-c2noc(C(F)(F)F)n2)cc1)c1ccc(Cl)cc1 (centres unmarked) [Compound 3] | 94% | 0% |  | 
6 | CS(=O)(=NCc1ccc(-c2noc(C(F)(F)F)n2)cc1)c1ccccn1 (centres unmarked) [Compound 4] | 98% | 74% |  | 
7 | CS(=O)(=Nc1ccc(-c2noc(C(F)(F)F)n2)cc1)c1ccccn1 (centres unmarked) [Compound 6] | 99% | 74% |  | 
8 | CS(=O)(=NCc1ccc(-c2noc(C(F)(F)F)n2)cc1)c1ccc(Br)cc1 (centres unmarked) [Compound 9] | 92% | 0% |  | 
9 | CS(=O)(=NCc1ccc(-c2noc(C(F)(F)F)n2)cc1)c1ccc(C#N)cc1 (centres unmarked) [Compound 10] | 100% | 55% |  | 
10 | CS(=O)(=NCc1ccc(-c2noc(C(F)(F)F)n2)cc1)c1ccc(C(F)(F)F)cc1 (centres unmarked) [Compound 11] | 99% | 0% |  | 
11 | O=S(=NCc1ccc(-c2noc(C(F)(F)F)n2)cc1)(c1ccccc1)C1CC1 (centres unmarked) [Compound 12] | 97% |  | 53* % | Test C disease control rating [2, 4]: 99* %
12 | CS(=O)(=Nc1ccc(-c2noc(C(F)(F)F)n2)cc1)c1cccs1 (centres unmarked) [Compound 13] | 100% | 45% | 91* % | 
13 | O=S1(=NCc2ccc(-c3noc(C(F)(F)F)n3)cc2)CCOCC1 [Compound 14] | 99% | 91% |  | 
14 | O=S(CCl)(=NCc1ccc(-c2noc(C(F)(F)F)n2)cc1)c1ccccc1 (centres unmarked) [Compound 15] | 97% |  | 28* % | Test C disease control rating [2, 4]: 99* %
15 | O=S1(=Nc2ccc(-c3noc(C(F)(F)F)n3)cc2)CCCC1 [Compound 16] | 77% | 0% | 89* % | 
16 | COC(=O)CCS(=O)(=NCc1ccc(-c2noc(C(F)(F)F)n2)cc1)c1ccccc1 (centres unmarked) [Compound 18] | 84% | 0% |  | 
17 | O=S(CCC(F)(F)F)(=NCc1ccc(-c2noc(C(F)(F)F)n2)cc1)c1ccccc1 (centres unmarked) [Compound 19] | 85% | 0% |  | 
18 | CS(=O)(=Nc1ccc(-c2noc(C(F)(F)F)n2)cc1)c1ccncc1 (centres unmarked) [Compound 20] | 98% | 89% |  | 
19 | CS(=O)(=NCc1ccc(-c2noc(C(F)(F)F)n2)cc1)c1ccccc1 (centres unmarked) [Compound 21] |  |  | 70* % | Test A disease control rating ([1]; 50 ppm test suspension): 100%; Test C disease control rating [2, 4]: 100* %
20 | CS(=O)(Cc1ccccc1)=Nc1ccc(-c2noc(C(F)(F)F)n2)cc1 (centres unmarked) [Compound 22] | 54% | 89% |  | 
21 | Cl.O=S1(=NCc2ccc(-c3noc(C(F)(F)F)n3)cc2)CCNCC1 [Compound 24] | 99% |  | 18* % | Test C disease control rating [2, 4]: 99* %; melting point: 219 to 223 °C
22 | CS(=O)(=Nc1ccc(-c2noc(C(F)(F)F)n2)cc1)c1ccsc1 (centres unmarked) [Compound 25, N-(methyloxido-3-thienyl-λ^4-sulfanylidene)-4-[5-(trifluoromethyl)-1,2,4-oxadiazol-3-yl]benzenamine] | 100% | 86% |  | 

Row | SMILES | Test A disease control rating ([1]; 10 ppm test suspension) | Test C disease control rating ([2]; 10 ppm test suspension) | Test B disease control rating [3] | further results
23 | CS(=O)(=NCc1ccc(-c2noc(C(F)(F)F)n2)cc1)c1cccs1 (centres unmarked) [Compound 27] | 100% |  | 98* % | Test C disease control rating [2, 4]: 100* %
24 | CS(=O)(=NCc1ccc(-c2noc(C(F)(F)F)n2)cc1)c1ccsc1 (centres unmarked) [Compound 28] | 100% |  | 79* % | Test C disease control rating [2, 4]: 100* %
25 | CS(=O)(=NCc1ccc(-c2noc(C(F)(F)F)n2)cc1)c1ccc2ccccc2c1 (centres unmarked) [Compound 29] | 97% |  | 3* % | Test C disease control rating [2, 4]: 99* %
26 | CS(=O)(=Nc1ccc(-c2noc(C(F)(F)F)n2)cc1)c1ccc2ccccc2c1 (centres unmarked) [Compound 30] | 0% | 74% |  | 
27 | CCCS(=O)(=NCc1ccc(-c2noc(C(F)(F)F)n2)cc1)c1ccccc1 (centres unmarked) [Compound 32] | 99% | 0% |  | 
28 | CS(C)(=O)=NCCc1ccc(-c2noc(C(F)(F)F)n2)cc1 [Compound 33, N-(dimethyloxido-λ^4-sulfanylidene)-4-[5-(trifluoromethyl)-1,2,4-oxadiazol-3-yl]benzeneethanamine] | 99% | 68% |  | 
29 | CCS(=O)(CC)=NCc1ccc(-c2noc(C(F)(F)F)n2)cc1 [Compound 34] | 100% | 41% |  | 
30 | CCCS(=O)(Cc1ccccc1)=Nc1ccc(-c2noc(C(F)(F)F)n2)cc1 (centres unmarked) [Compound 35] | 0% | 0% |  | 
31 | CCCS(=O)(Cc1ccccc1)=NCc1ccc(-c2noc(C(F)(F)F)n2)cc1 (centres unmarked) [Compound 36] | 100% | 0% |  | 
32 | CCCS(=O)(=NCc1ccc(-c2noc(C(F)(F)F)n2)cc1)c1c(F)c(F)c(F)c(F)c1F (centres unmarked) [Compound 37] |  |  | 15* % | Test A disease control rating ([1]; 50 ppm test suspension): 100%; Test C disease control rating ([2]; 50 ppm test suspension): 89%
33 | CS(=O)(=Nc1ccc(-c2noc(C(F)(F)F)n2)cc1)c1ccccc1 (centres unmarked) [Compound 39] | 99% | 100% | 65* % | 
34 | Cc1cc(C)c(S(C)(=O)=NCc2ccc(-c3noc(C(F)(F)F)n3)cc2)c(C)c1 (centres unmarked) [Compound 40] | 91% | 0% | 36* % | 
35 | O=S1(=NCc2ccc(-c3noc(C(F)(F)F)n3)cc2)CCCCC1 [Compound 43] |  |  |  | Test A disease control rating ([1]; 50 ppm test suspension): 100%; Test C disease control rating ([2]; 50 ppm test suspension): 99%
36 | CS(=O)(=NCc1ccc(-c2noc(C(F)(F)F)n2)cc1)c1ccccc1C#N (centres unmarked) [Compound 44] | 98% | 100% | 0* % | 
37 | CS(=O)(=NCc1ccc(-c2noc(C(F)(F)F)n2)cc1)c1cccc(C#N)c1 (centres unmarked) [Compound 45] | 100% | 100% | 0* % | 
38 | CCCS(C)(=O)=NCc1ccc(-c2noc(C(F)(F)F)n2)cc1 (centres unmarked) [Compound 46] | 100% | 100% | 1* % | 
39 | COc1ccc(S(C)(=O)=NCc2ccc(-c3noc(C(F)(F)F)n3)cc2)cc1 (centres unmarked) [Compound 47] | 99% | 32% |  | 
40 | COCCS(=O)(=NCc1ccc(-c2noc(C(F)(F)F)n2)cc1)c1ccccc1 (centres unmarked) [Compound 48, N-[(2-methoxyethyl)oxidophenyl-λ^4-sulfanylidene]-4-[5-(trifluoromethyl)-1,2,4-oxadiazol-3-yl]benzenemethanamine] | 98% | 45% |  | 
41 | COC(=O)c1ccc(S(C)(=O)=NCc2ccc(-c3noc(C(F)(F)F)n3)cc2)cc1 (centres unmarked) [Compound 49] | 0% | 0% |  | 
42 | CS(C)(=O)=NCc1ccc(-c2noc(C(F)(F)F)n2)cc1 [Compound 50] | 99% |  |  | Test C disease control rating ([2]; 50 ppm test suspension): 100** %
43 | CC(N=S(C)(C)=O)c1ccc(-c2noc(C(F)(F)F)n2)cc1 (centres unmarked) [Compound 52] | 79% |  | 25* % | Test C disease control rating ([2]; 50 ppm test suspension): 98** %
